Where two headings read alike, the source gives them in different places. Values belong to the compound of their own block, whether it stands above or below them.
How the values were obtained:
G. intestinalis = assay: Drug sensitivity assay, G. intestinalis (flow cytometry); assay type: cell-based; details: Giardia duodenalis; reference compound; G. intestinalis; 24 h; read-out: control EC50
Description: (§1) All organisms were cultivated according to the conditions summarized in Table S2, which also includes strain specifications. Dose–response curves were obtained by their cultivation on 96 well plates in a 2-fold series dilution of the appropriate drug, in a total volume of 200 μL (with the exception of P. falciparum, where the total volume was 100 μL). Iron supplementation was achieved by mixing the compound with Fe-NTA in an equimolar ratio prior to setting up the experiment. Results were plotted and processed using Prism 8.0 (GraphPad Software). A two-tailed unpaired t-test was performed to assess the significance of the difference between mitoDFO with and without added iron. Selectivity was calculated as the ratio of the average EC50 value for human fibroblasts to the average EC50 value for the appropriate pathogen. All data were obtained from a minimum of three independent biological replicates.

L. mexicana (amastigote) = assay: Drug sensitivity assay, axenic L. mexicana amastigote (flow cytometry); assay type: cell-based, Leishmania mexicana
Description: as §1

murine macrophage [1] = assay: Intracellular L. mexicana infection assay, macrophage population; assay type: cell-based, mouse; details: infected macrophages, 72 h treatment, read-out: EC50 infection assay murine macrophage
Description: (§2) Approximately 10 000 murine macrophages per well were seeded on 96 well plate, and a suspension of 60 000 L. mexicana GFP-expressing promastigotes was added to each well and left to infect the mammal cells for 72 h in a cultivation medium under the conditions described in Table S2. 2-fold dilution series starting with 100 μM of either mitoDFO, DFO, or Amphotericin B in a regular growth medium were added, and cultures were incubated for further 72 h in the same conditions. Macrophage cells were washed and resuspended in growth medium and detached by pipetting, and their concentration in each well was measured on a Guava EasyCyte 8HT flow cytometer (Luminex). The GFP signal of internalized L. mexicana amastigotes in each macrophage was detected using a 488 nm excitation laser and a 525/30 nm detector. Median fluorescence graphs were plotted, and EC50 values for both macrophages and intracellular L. mexicana were calculated using Prism 8.0 (GraphPad Software).

murine macrophage [2] = assay: Murine macrophage axenic monoculture EC50; assay type: cell-based, mouse; details: axenic monoculture, read-out: EC50 axenic murine macrophage
[3] = tested on: intracellular Leishmania mexicana amastigotes; assay: Intracellular L. mexicana infection assay, GFP amastigotes in macrophages; assay type: cell-based; details: intracellular amastigotes, 72 h treatment, read-out: EC50 infection assay Leishmania mexicana
Description: as §2

T. brucei 427 (BSF) = assay: Drug sensitivity assay, T. brucei 427 bloodstream form (resazurine); assay type: cell-based, Trypanosoma brucei; details: Trypanosoma brucei
Description: as §1

B. divergens = assay: Drug sensitivity assay, B. divergens in bovine erythrocytes (flow cytometry); assay type: cell-based, Babesia divergens; details: Babesia divergens, Erythrocyte; reference compound; B. divergens; 48 h; read-out: control EC50
Description: as §1

T. brucei STIB (BSF) = assay: Drug sensitivity assay, T. brucei STIB bloodstream form (resazurine); assay type: cell-based, Trypanosoma brucei; details: Trypanosoma brucei; reference compound; T. brucei STIB (BSF); 72 h; read-out: control EC50
Description: as §1

T. gambiense (BSF) = assay: Drug sensitivity assay, T. gambiense bloodstream form (resazurine); assay type: cell-based, Trypanosoma gambiense; details: Trypanosoma brucei; reference compound; T. gambiense (BSF); 72 h; read-out: control EC50
Description: as §1

P. falciparum = assay: Drug sensitivity assay, P. falciparum (SYBR green I); assay type: cell-based, Plasmodium falciparum; details: Plasmodium falciparum, 48 h, read-out: control EC50
Description: as §1

A. castellanii = assay: Drug sensitivity assay, A. castellanii (flow cytometry); assay type: cell-based, Acanthamoeba castellanii; details: Acanthamoeba castellanii; reference compound; A. castellanii; 96 h; read-out: control EC50
Description: as §1

L. major (promastigote) = assay: Drug sensitivity assay, L. major promastigote (flow cytometry); assay type: cell-based; details: Leishmania major; reference compound; L. major (promastigote); 120 h; read-out: control EC50
Description: as §1

N. fowleri = assay: Drug sensitivity assay, N. fowleri (flow cytometry); assay type: cell-based; details: Naegleria fowleri; reference compound; N. fowleri; 72 h; read-out: control EC50
Description: as §1

C. neoformans = assay: Drug sensitivity assay, C. neoformans (OD600); assay type: cell-based, Cryptococcus neoformans; details: Cryptococcus neoformans; reference compound; C. neoformans; 72 h; read-out: control EC50
Description: as §1

C. albicans = assay: Drug sensitivity assay, C. albicans (OD600); assay type: cell-based, Candida albicans; details: Candida albicans; reference compound; C. albicans; 48 h; read-out: control EC50
Description: as §1

SMILES: CN(C)CCOc1ccc(/C(=C(/CCCCCCCCCC[P+](c2ccccc2)(c2ccccc2)c2ccccc2)c2ccccc2)c2ccccc2)cc1 [MitoTam]
EC50 (L. mexicana (amastigote); axenic monoculture, read-out: EC50 axenic Leishmania mexicana): 0.35 µM
EC50 (murine macrophage [1]): 0.26 µM
EC50 (murine macrophage [2]): 0.39 µM
EC50 [3]: ~0.1 µM

SMILES: O=C1C(O)=C([C@H]2CC[C@H](c3ccc(Cl)cc3)CC2)C(=O)c2ccccc21 [atovaquone, reference compound]
EC50 (B. divergens): 0.008 ± 0.001 µM

SMILES: N=C(N)c1ccc(OCCCCCOc2ccc(C(=N)N)cc2)cc1 [pentamidine]
EC50 (T. brucei STIB (BSF)): 0.001 ± 0.0004 µM
EC50 (T. brucei 427 (BSF); reference compound, T. brucei 427 (BSF), 72 h, read-out: control EC50): 0.007 ± 0.001 µM
EC50 (T. gambiense (BSF)): 0.002 ± 0.0005 µM

SMILES: CCN(CC)CCCC(C)Nc1ccnc2cc(Cl)ccc12 (stereo not drawn) [chloroquine, reference compound]
EC50 (P. falciparum): 0.015 ± 0.001 µM

SMILES: C[C@@H]1[C@H](O)[C@@H](C)/C=C/C=C/C=C/C=C/C=C/C=C/C=C/[C@H](O[C@@H]2O[C@H](C)[C@@H](O)[C@H](N)[C@@H]2O)C[C@@H]2O[C@](O)(C[C@@H](O)C[C@@H](O)[C@H](O)CC[C@@H](O)C[C@@H](O)CC(=O)O[C@H]1C)C[C@H](O)[C@H]2C(=O)O [AmpB, amphotericin B, reference compound]
EC50 (A. castellanii): 8.1 ± 1.6 µM
EC50 (L. mexicana (amastigote); Leishmania mexicana, axenic monoculture, read-out: EC50 axenic Leishmania mexicana): 0.33 ± 0.08 µM
EC50 (L. mexicana (amastigote); Leishmania mexicana, reference compound, L. mexicana (amastigote), 120 h, read-out: control EC50): 0.32 ± 0.035 µM
EC50 (L. major (promastigote)): 0.024 ± 0.008 µM
EC50 (murine macrophage [1]; Mus musculus, Macrophage): 29.1 ± 5.91 µM
EC50 (N. fowleri): 0.069 ± 0.009 µM
EC50 (C. neoformans): 0.2 ± 0.1 µM
EC50 (C. albicans): 1.5 ± 0.1 µM
EC50 (murine macrophage [2]; Mus musculus, Macrophage): > 25 µM
EC50 ([3]; Leishmania mexicana, Macrophage): 3.77 ± 0.4 µM

The next lines start with the values.

EC50 (G. intestinalis): 2.6 ± 1.4 µM
SMILES: O=C(Cn1ccnc1[N+](=O)[O-])NCc1ccccc1 [benznidazole]

EC50 (T. brucei 427 (BSF); T. brucei 427, comparison drug in text, read-out: EC50): 4.84 µM
SMILES: CSc1ccc(OCc2ncc([N+](=O)[O-])n2C)cc1 [fexinidazole]
